The values that follow come from ChEMBL document CHEMBL5126512, “Current status of carbazole hybrids as anticancer agents” (Eur J Med Chem, 2022).

The subject of data set [1] is MCF7. As to the kind of experiment: Cytotoxicity against human MCF7 cells assessed as cell growth inhibition measured after 48 hrs by MTT assay. The settings on record: MCF7, 48 h. It counts as functional, cell-based.
Data set [2] relates to MCF7. As to the kind of experiment: Potency index, ratio of Doxorubicin IC50 to compound IC50 for cytotoxicity against human MCF7 cells by MTT assay. It counts as functional.
Data set [3] concerns DU-145. Description: Antiproliferative activity against human DU-145 cells assessed as cell growth inhibition measured after 24 hrs by MTT assay. It counts as functional, cell-based. The settings on record: DU-145, 24 h. On the technique in general: Formazan colour is commonly taken as a measure of viable cells.
Data set [4] concerns MDA-MB-231. Description: Antiproliferative activity against human MDA-MB-231 cells assessed as cell growth inhibition measured after 24 hrs by MTT assay. It counts as functional, cell-based. The settings on record: MDA-MB-231, 24 h.
The test system of data set [5] is SK-OV-3. Description: Antiproliferative activity against human SK-OV-3 cells assessed as cell growth inhibition measured after 24 hrs by MTT assay. In kind it is functional, cell-based. The settings on record: SK-OV-3, 24 h.
The subject of data set [6] is B16-F10. As to the kind of experiment: Antiproliferative activity against mouse B16-F10 cells assessed as cell growth inhibition measured after 24 hrs by MTT assay. The settings on record: B16-F10, 24 h. It counts as functional, cell-based.
Data set [7] has as its system AGS. Description: Antiproliferative activity against human AGS cells assessed as cell growth inhibition measured after 72 hrs by MTT assay. In kind it is functional, cell-based.
Data set [8] relates to SGC-7901. Description: Antiproliferative activity against human SGC-7901 cells assessed as cell growth inhibition measured after 72 hrs by MTT assay. In kind it is functional, cell-based. The settings on record: SGC-7901, 72 h.
The test system of data set [9] is A549. Description: Anticancer activity against human A549 cells assessed as cell growth inhibition measured after 48 hrs by MTT assay. It counts as functional, cell-based. As to conditions: A549, 48 h.
In data set [10] the test system is MCF7. As to the kind of experiment: Anticancer activity against human MCF7 cells assessed as cell growth inhibition measured after 48 hrs by MTT assay. In kind it is functional, cell-based. The settings on record: MCF7, 48 h.
For data set [11], the system named is HCT-116. Description: Antiproliferative activity against human HCT-116 cells assessed as cell growth inhibition measured after 48 hrs by MTT assay. In kind it is functional, cell-based. As to conditions: HCT-116, 48 h.
Data set [12] relates to HT-29. As to the kind of experiment: Antiproliferative activity against human HT-29 cells assessed as cell growth inhibition measured after 48 hrs by MTT assay. It counts as functional, cell-based. The settings on record: HT-29, 48 h.
In data set [13] the test system is SW837. As to the kind of experiment: Antiproliferative activity against human SW837 cells assessed as cell growth inhibition measured after 48 hrs by MTT assay. In kind it is functional, cell-based. As to conditions: SW837, 48 h.
Data set [14] has as its system MDA-MB-231. Description: Antiproliferative activity against human MDA-MB-231 cells assessed as cell growth inhibition measured after 48 hrs by MTT assay. In kind it is functional, cell-based. As to conditions: MDA-MB-231, 48 h.
In data set [15] the test system is K562. As to the kind of experiment: Cytotoxicity activity against human K562 cells assessed as cell growth inhibition measured after 72 hrs by MTT assay. In kind it is functional, cell-based. As to conditions: K562, 72 h.
A short description of data set [16]: Cytotoxicity activity against African green monkey vero cells assessed as cell growth inhibition measured after 72 hrs by MTT assay. It counts as toxicity, cell-based, Chlorocebus sabaeus.
Data set [17] is described as follows: Cytotoxicity activity against human PBMC cells assessed as cell growth inhibition measured after 72 hrs by MTT assay. It counts as toxicity, cell-based.
For data set [18], the system named is MDA-MB-231. Description: Cytotoxicity against human MDA-MB-231 cells assessed as cell growth inhibition measured after 48 hrs by MTT assay. The settings on record: MDA-MB-231, 48 h. In kind it is functional, cell-based.
The subject of data set [19] is HeLa. As to the kind of experiment: Cytotoxicity against human HeLa cells assessed as cell growth inhibition measured after 48 hrs by MTT assay. In kind it is functional, cell-based.
The nature of data set [20]: Cytotoxicity against human HUVEC cells assessed as cell growth inhibition measured after 48 hrs by MTT assay. In kind it is toxicity, cell-based.
Data set [21] relates to ASPC1. As to the kind of experiment: Anticancer activity against human ASPC1 cells assessed as cell growth inhibition measured after 72 hrs by Cell-Titre Glo luminescent cell viability assay. The settings on record: ASPC1, 72 h. In kind it is functional, cell-based.
Data set [22] concerns SW1990. Description: Anticancer activity against human SW1990 cells assessed as cell growth inhibition measured after 72 hrs by Cell-Titre Glo luminescent cell viability assay. It counts as functional, cell-based. The settings on record: SW1990, 72 h.
Data set [23] can be described thus: Cytotoxicity against human MRC5 cells assessed as cell growth inhibition measured after 72 by Cell-Titre Glo luminescent cell viability assay. In kind it is toxicity, cell-based.
A short description of data set [24]: Cytotoxicity against human ARPE-19 cells assessed as cell growth inhibition measured after 72 by Cell-Titre Glo luminescent cell viability assay. In kind it is toxicity, cell-based.
For data set [25], the system named is A498. Description: Antiproliferative activity against human A498 cells assessed as cell growth inhibition measured after 72 hrs by SRB assay. It counts as functional, cell-based. As to conditions: A498, 72 h. For orientation: The SRB assay estimates cell density from bound dye.
For data set [26], the system named is A549. Description: Antiproliferative activity against human A549 cells assessed as cell growth inhibition measured after 72 hrs by SRB assay. It counts as functional, cell-based. As to conditions: A549, 72 h.
Data set [27] can be described thus: Cytotoxicity against human NHDF cells assessed as cell growth inhibition measured after 72 hrs by SRB assay. In kind it is toxicity, cell-based.
In data set [28] the test system is HepG2. As to the kind of experiment: Antitumor activity against human HepG2 xenografted in BALB/c nude mouse assessed as tumor growth inhibition at 50 mg/kg, iv administered every 2 days and measured upto 30 days relative to control. It counts as functional. The settings on record: read-out: TGI. For orientation: A xenograft is tissue or cells of one species grown in another, often human tumour cells in immunodeficient mice.

Data set [29] has as its system PA-1. As to the kind of experiment: Antiproliferative activity against human PA-1 cells assessed as cell growth inhibition measured after 48 hrs by MTT assay. It counts as functional, cell-based. The settings on record: PA-1, 48 h.
The test system of data set [30] is OVCAR-3. As to the kind of experiment: Antiproliferative activity against human OVCAR-3 cells assessed as cell growth inhibition measured after 48 hrs by MTT assay. It counts as functional, cell-based. As to conditions: OVCAR-3, 48 h.
Data set [31] relates to HepG2. Description: Antiproliferative activity against human HepG2 cells assessed as cell growth inhibition measured after 48 hrs by MTT assay. In kind it is functional, cell-based. The settings on record: HepG2, 48 h.
In data set [32] the test system is DU-145. As to the kind of experiment: Antiproliferative activity against human DU-145 cells assessed as cell growth inhibition measured after 48 hrs by MTT assay. In kind it is functional, cell-based. As to conditions: DU-145, 48 h.
In data set [33] the test system is HeLa. Description: Antiproliferative activity against human HeLa cells assessed as cell growth inhibition measured after 48 hrs by MTT assay. In kind it is functional, cell-based.

In general, IC50 refers to the concentration at which inhibition is half-maximal. `N#CC1=C(N)Oc2ccc3c([nH]c4ccccc43)c2C12C(=O)N(Cc1cn(Cc3ccc([N+](=O)[O-])cc3)nn1)c1ccccc12` (stereo not given): in data set [1], the IC50 worked out at 2.13 µM. For the same compound, the “Ratio IC50” value in data set [2] worked out at 2.1.
As to `CNC1=C([N+](=O)[O-])C(c2cc(OC)c(OC)c(OC)c2)c2ccc3[nH]c4ccccc4c3c2O1` (stereo not given), the IC50 in data set [3], in [4], in data set [5] and in data set [6] was 5.1 µM throughout.
Turning to `N=C(N)N/N=C/c1ccc2c(c1)c1ccccc1n2Cc1ccccc1F`, the IC50 was 0.4 µM in data set [7] and 1.5 µM in data set [8].
`O=C1c2[nH]c3ccc(Cl)cc3c2CC[C@@]12[C@@H](c1ccc(Cl)cc1)C1CSCN1C21c2ccccc2-c2nc3ccccc3nc21` (stereo not given in full): the IC50 came out at 20 µM in [9] and 21 µM in [10].
For the compound `Oc1cc2[nH]c3ccccc3c2cc1CN1CCCCC1`, the IC50 in data set [11] was determined as 18 µM; in [12] it was 18 µM; in data set [13] it was 16 µM; in [14] it was 16 µM.
For `Cc1c2ccncc2c(C)c2c1[nH]c1c(S(=O)(=O)O)cc(Br)cc12`, the IC50 in data set [15] is 35 µM. The IC50 at 72 h in data set [16] and in [17] was > 100 µM each time.
On to `CCCCCn1cc(CN2C(=O)C3(C(C#N)=C(N)Oc4ccc5c([nH]c6ccccc65)c43)c3ccccc32)nn1` (stereo not given), for which the IC50 in data set [1], in data set [18] and in [19] was 4.8 µM each time. In addition, the IC50 at 48 h in data set [20] stood at 4.8 µM.
Regarding `CCCCn1c2ccccc2c2cc(/C=N/NC(=O)c3ccncc3)ccc21`, the IC50 in data set [21] came to 3.42 µM; in data set [22], 22.4 µM; in [23], 64.8 µM; in data set [24], 65.6 µM.
For `Cc1c2ccncc2c(C(=O)NCCN(C)C)c2c3cc(CO)ccc3n(C)c12`, the figures for the IC50 in data set [25] and in [26] were 0.78 µM and 0.65 µM, respectively. In data set [27], the IC50 at 72 h came out at 7.33 µM.
Regarding `COc1ccc(/C=C\c2cc(OC)c(OC)c(OC)c2)cc1OP(=O)(O)O` [FOSBRETABULIN], the inhibition in vivo at 50 mg/kg in data set [28] worked out at 48.3%.
Turning to `COc1ccc2[nH]c3c4c(c(C)cc3c2c1)OC(C)(C)C=C4` [KOENIMBINE], the IC50 in data set [29], in data set [30], in [31], in [32], in data set [11] and in [33] was 0.2 µM each time.
